From US11364246B2, “Compounds” (TMEM16A Limited, priority 2019, dated 2022)

target: human TMEM16A (Homo sapiens, UniProt Q5XXA6); test: Automated whole-cell patch clamp (Qpatch) assay to detect TMEM16A activity in recombinant cells; assay type: cell-based; conditions: 3.33 μM test compound; % increase of baseline TMEM16A current; FRT cells stably expressing human TMEM16A (TMEM16Aabc variant); intracellular calcium at EC20
Experimental: Automated Whole-Cell Patch Clamp Assay to Detect TMEM16A Activity in Recombinant Cells
Fisher rat thyroid (FRT) cells stably expressing human TMEM16A (TMEM16Aabc variant; Dr Luis Galietta, Insituto Giannina, Italy) were cultured in T-75 flasks in Hams F-12 media with Coon's modification (Sigma) supplemented with 10% (v/v) foetal bovine serum, penicillin-streptomycin (10,000 U/mL/10000 pg/mL), G-418 (750 pg/mL), L-glutamine (2 mM) and sodium bicarbonate solution (7.5% v/v). At −90% confluence cells were harvested for experiments by detachment with a 2:1 (v/v) mixture of Detachin (BMS Biotechnology) and 0.25% (w/v) trypsin-EDTA. Cells were diluted to a density of 3.5-4.5×10^6 cells/mL with media consisting of CHO-S-SFM (Sigma), 25 mM HEPES (Sigma) and Soy bean trypsin inhibitor (Sigma).
FRT-TMEM16A cells were whole-cell patch clamped using an automated planar patch clamp system (Qpatch, Sophion). Briefly, once high resistance (GOhm) seals were established between the cells and the planar recording array the patch was ruptured using suction pulses to establish the whole-cell recording configuration of the patch clamp technique. The assay employed the following solutions (all reagents Sigma): Intracellular solution (mM): N-methyl-D-glucamine 130, CaCh 18.2, MgCh 1. HEPES 10, EGTA 10, BAPTA 20, Mg-ATP 2, pH 7.25, 325 mOsm with sucrose.
Extracellular solution (mM): N-methyl-D-glucamine 130, CaCl2 2, MgCh 1, HEPES 10, pH 7.3, 320 mOsm with sucrose.
The intracellular solution buffers intracellular calcium at levels required to give −20% activation of the maximal TMEM16A mediated current (EC20 for calcium ions). Cells were voltage clamped at a holding potential of −70 mV and a combined voltage step (to +70 mV)/ramp (−90 my to +90 mV) was applied at 0.05 Hz. After a period of current stabilisation test compounds, solubilised in 100% (v/v) DMSO and subsequently diluted into extracellular solution, were applied to generate a cumulative concentration response curve. Each concentration of test compound was incubated for 5 minutes before addition of the next concentration. After the final concentration was tested a supramaximal concentration of either a known active positive modulator or the TMEM16A inhibitor. CaCCinhAOI (Del La Fuente et al, 2008) was added to define the upper and lower limits of the assay.
Compound activity was quantified by measuring the increase in current upon compound addition and expressing this as a percentage increase of baseline TMEM16A current level. […]
Peak TMEM16A current at +70 mV was plotted as a function of time over the assay period. Baseline current (IBL) was measured after a period of stabilisation. The increase in current for each compound addition was determined by taking the peak current during the incubation period and subtracting the current from the previous recording period and then expressing this as a percentage of the baseline current. […]
For each additional concentration tested the increase in current was determined by subtracting the current from the previous incubation period and normalising the baseline value—for test concentration 2 in FIG. 1 this is: (I[#2]−I[# ? /IBL)×100
The values for each test concentration were plotted as a cumulative function of concentration eg. for test concentration two this would be the sum of the peak changes measured during concentration one plus concentration two.

Row | Structure (SMILES) | % Potentiation @ 3.33 μM Avg [%]
1 | CC(C)(C)NC(=O)c1cc(NC(=O)[C@@H]2CCc3ccccc32)ccn1 (single isomer, unassigned) [Example 21a, N-tert-Butyl-4-[[(1R)-indane-1-carbonyl]amino]pyridine-2-carboxamide or N-tert-Butyl-4-[[(1S)-indane-1-carbonyl]amino]pyridine-2-carboxamide] | 99
2 | O=C(Cc1cc(Cl)ccc1O)Nc1ccnc(C(=O)N[C@@]2(CO)CCOC2)c1 (single isomer, unassigned) [Example 35b, 4-[[2-(5-Chloro-2-hydroxy-phenyl)acetyl]amino]-N-[(3R)-3-(hydroxymethyl)tetrahydrofuran-3-yl]pyridine-2-carboxamide or 4-[[2-(5-chloro-2-hydroxy-phenyl)acetyl]amino]-N-[(3S)-3-(hydroxymethyl)tetrahydrofuran-3-yl]pyridine-2-carboxamide] | 190
3 | CC(C)(C)NC(=O)c1cc(NC(=O)C2(c3cccc(Cl)c3)CC2)ccn1 [Example 5.31, N-tert-butyl-4-[[1-(3-chlorophenyl)cyclopropanecarbonyl]amino]pyridine-2-carboxamide] | 145
4 | O=C(Cc1cc(Cl)ccc1O)Nc1ccnc(C(=O)NC23CCC(F)(C2)C3)c1 [Example 44, 4-[[2-(5-Chloro-2-hydroxy-phenyl)acetyl]amino]-N-(4-fluoro-1-bicyclo[2.1.1]hexanyl)pyridine-2-carboxamide] | 1
5 | C#CC(C)(C)NC(=O)c1cc(NC(=O)Cc2cccc3cc[nH]c23)ccn1 [Example 79.3, N-(1,1-Dimethylprop-2-ynyl)-4-[[2-(1H-indol-7-yl)acetyl]amino]pyridine-2-carboxamide] | 64
